The IC50 is the concentration that gives 50% inhibition.

The subject of one data set is hCoV-229E. Nature of the data set: microbe, parasite or virus in culture. Format: cell-based. Particulars: Human coronavirus 229E.
A further data set has as its system SARS-CoV-2. Nature of the data set: microbe, parasite or virus in culture. It counts as cell-based. Conditions: for IC50: Severe acute respiratory syndrome coronavirus 2, SARS-CoV-2 in A549_ACE2_TMPRSS2 cells, fluorescence, mean of three biological replicates; for selectivity index (CC50/IC50): CC50 in A549_ACE2_TMPRSS2 cells over IC50.
The nature of a further data set: in vitro. Conditions: human.

Molecules are shown by their SMILES.

`CC[C@@H](C)NC1=N[C@@]2(C)C(=CO1)[C@@]1(C)C(=O)C[C@H]3[C@@H](CC[C@@H]4[C@]3(C)CC[C@H]3[C@@]4(C)CC[C@H]4[C@@](C)(CO)C[C@H](O[C@H]5C[C@@H](OC)[C@H](O)[C@@H](C)O5)[C@@H](O)[C@@]43C)[C@@]13O[C@H]3[C@@H]2O` [Persicamidine A, persicamidine A]: the figures for the IC50 with hCoV-229E and in the data set with SARS-CoV-2 were 3.8 nM and 130 nM, respectively.
Regarding `CO[C@@H]1C[C@H](O[C@H]2C[C@](C)(CO)[C@@H]3CC[C@@]4(C)[C@@H]5CC[C@@H]6[C@H](CC(=O)[C@]7(C)C8=COC(NC(C)C)=N[C@]8(C)[C@@H](O)[C@@H]8O[C@@]687)[C@@]5(C)CC[C@@H]4[C@@]3(C)[C@@H]2O)O[C@H](C)[C@H]1O` [Persicamidine B, persicamidine B], the IC50 worked out at 3.6 nM with hCoV-229E and 230 nM in the data set on SARS-CoV-2.
In turn, `CO[C@@H]1C[C@H](O[C@H]2C[C@](C)(CO)[C@@H]3CC[C@@]4(C)[C@@H]5CC[C@@H]6[C@H](CC(=O)[C@]7(C)C8=COC(N[C@H](C)C(C)C)=N[C@]8(C)[C@@H](O)[C@@H]8O[C@@]687)[C@@]5(C)CC[C@@H]4[C@@]3(C)[C@@H]2O)O[C@H](C)[C@H]1O` [Persicamidine C, persicamidine C] returned an IC50 in the data set on hCoV-229E of 6.6 nM. In addition, in the data set on SARS-CoV-2, the IC50 was 74 nM and the “selectivity index (CC50/IC50)” value is listed as more than 50.
Taken in the same sequence, the figures for `CO[C@@H]1C[C@H](O[C@H]2C[C@](C)(CO)[C@@H]3CC[C@@]4(C)[C@@H]5CC[C@@H]6[C@H](CC(=O)[C@]7(C)C8=COC(N[C@H](C)C(C)(C)C)=N[C@]8(C)[C@@H](O)[C@@H]8O[C@@]687)[C@@]5(C)CC[C@@H]4[C@@]3(C)[C@@H]2O)O[C@H](C)[C@H]1O` [Persicamidine D, persicamidine D] were 5.2 nM, 84 nM and more than 80.
Take `CCNC1=N[C@@]2(C)C(=CO1)[C@@]1(C)C(=O)C[C@H]3[C@@H](CC[C@@H]4[C@]3(C)CC[C@H]3[C@@]4(C)CC[C@H]4[C@@](C)(CO)C[C@H](O[C@H]5C[C@@H](OC)[C@H](O)[C@@H](C)O5)[C@@H](O)[C@@]43C)[C@@]13O[C@H]3[C@@H]2O` [Persicamidine E, persicamidine E]: the IC50 in the data set with hCoV-229E amounted to 5.3 nM; in the data set with SARS-CoV-2 it was 250 nM.
For the compound `CCC(CC)COC(=O)[C@H](C)N[P@](=O)(OC[C@H]1O[C@@](C#N)(c2ccc3c(N)ncnn23)[C@H](O)[C@@H]1O)Oc1ccccc1` [Remdesivir, reference compound], the CC50 in “in vitro” is more than 1000 nM. In addition, the IC50 in the data set with hCoV-229E amounted to 3.5 nM; in the data set with SARS-CoV-2, 30 nM. The viral inhibition entry in the data set with SARS-CoV-2 (SARS-CoV-2, antiviral compound control at 1 µM) was “full viral inhibition”.

Source of the values: publication PMC10107436, “Persicamidines—Unprecedented Sesquarterpenoids with Potent Antiviral Bioactivity against Coronaviruses” (Angewandte Chemie (International Ed. in English), 2023).
